Experimental findings from patent US20180353482A1, “MIRABEGRON FOR THE TREATMENT OF RETINAL DISEASES” (SORBONNE UNIVERSITE, priority 2015, published 2018) are described below.

The structures appear in SMILES notation. Entries after “also recorded” stand apart in the source; their conditions may differ.

Holding throughout (type): cell-based, porcine
The test system of experiment [1] is RPE cells. The experiment is described as follows: Alkalinisation and measurement of lysosomal pH (pHL) of RPE cells treated with tamoxifen.
Experimental: After one week in culture, the cells are treated with trypsin and transferred to a 96-well plate with a black background at a cell density of 1.5×10^5 cells/cm^2 in DMEM2% FCS. After 24 hours, the cells are treated with a beta-adrenergic agonist (mirabegron, amibegron, clenbuterol or isoproterenol at 1 pM or CL-316,243 at 20 nM), and 5 minutes later with tamoxifen (15 μM), and the pHL is measured after a further 20 minutes. […] To measure the pHL, the cells are incubated with the dye for 5 minutes at 37° C., and the fluorescence emitted by the dye is measured on a plate reader. The excited light ratio at 329/384 nm is then converted into pH using a calibration series (pH 4 to pH 6) performed in a KCl buffer in the presence of 10 μM of monensin and 20 μM of nigericin, two ionophores.
The test system of a further experiment is cathepsin D. The experiment is described as follows: Cathepsin D activity measurement in RPE cells treated with concanamycin. The following applies: FIG. 2. The procedure:
Pigs' eyes are delivered to Institut de la Vision in a cold medium from a local slaughterhouse. The eyes are dissected so as to remove the anterior segment of the eye, the vitreous body and the neural retina. The eyeballs are then washed twice with PBS, filled with trypsin (0.25% in PBS) and incubated at 37° C. for 1 hr15. The RPE cells are then retrieved by repeated pipetting, centrifuged to remove the trypsin, and resuspended in DMEM culture medium supplemented with 20% foetal calf serum (DMEM20% FCS). The cells of each eye are then inoculated in a 6 cm diameter Petri dish, cultured in an atmosphere containing 5% CO2 at 37° C., and the culture medium is replaced after 24 hours and 4 days in vitro. After one week, the cells reach confluency and can then be passaged.
After one week in culture, the cells are treated with trypsin and transferred into 3.5 cm diameter Petri dishes at a cell density of 1.5×10^5 cells/cm^2 in DMEM2% FCS. After 24 hours, the cells are treated with 20 nM of concanamycin so as to inhibit the activity of cathepsin D, as well as with a beta-adrenergic agonist. After 24 hours of treatment, the cells are washed with PBS and then transferred into an extraction buffer on ice. The cell extract is centrifuged at 2000 rpm at 4° C. for 10 minutes and the supernatant corresponding to the cytosolic part is frozen at −80° C. until the measurement of the enzyme activity. The activity of cathepsin D is measured using the Anson method (J Gen Physiol. 1938, 22(1):79-89) that we adapted to our experimental schedule. In brief, the cytosolic extract is incubated for 10 minutes at 37° C. in a haemoglobin solution (2.5% in 400 mM of citrate buffer at pH 2.8). The reaction is stopped by adding 5% trichloroacetic acid and the mixture is centrifuged. The optical density of the supernatant containing the breakdown products of haemoglobin is measured at 280 nm. The absorbance is corrected by subtracting that of the control, prepared as above but by adding haemoglobin after stopping the enzymatic reaction. One unit of cathepsin D is then defined as being the quantity of enzyme required to induce a change of absorbance of 1 to 280 nm for 60 minutes of incubation using the experimental conditions described hereinabove. The protein concentration of the cell lysates is measured according to the Bradford method so as to normalise the results.
Cathepsin D is the lysosomal proteolytic enzyme mainly present in the retinal pigment epithelium involved in photoreceptor outer segment digestion. The activity thereof is dependent on the protonation of the amino acid aspartic acid of the active site thereof and on the conformation thereof, which both require an acidic environment. […]

Experiment [2] has as its system RPE cells. The experiment is described as follows: In vitro model of lipofuscin accumulation in RPE (oxidised photoreceptor outer segments). The following applies: FIG. 3. The protocol: Pigs' eyes are delivered to Institut de la Vision in a cold medium from a local slaughterhouse. The eyes are dissected so as to remove the anterior segment of the eye, the vitreous body and the neural retina. The eyeballs are then washed twice with PBS, filled with trypsin (0.25% in PBS) and incubated at 37° C. for 1 hr15. The RPE cells are then retrieved by repeated pipetting, centrifuged to remove the trypsin, and resuspended in DMEM culture medium supplemented with 20% foetal calf serum (DMEM20% FCS). […]
In order to induce an accumulation of lipofuscin type material in the RPE cells, the latter are treated 3 times per week with 5×10^6 POS-ox in DMEM20% FCS containing 2.5% of sucrose for two weeks. […] The autofluorescence induced by the accumulation of lipofuscin is measured using a plate reader (excitation at 480 nm and emission between 500 and 700 nm corresponding to the emission spectrum of lipofuscin).
In order to verify whether the different beta-adrenergic agonists are capable of also acting upon lipofuscin accumulation, we also tested them in a cell model wherein this accumulation is induced by treating RPE cells with oxidised OS by UV exposure every two days. […] The lipofuscin accumulation was measured after two weeks of co-treatment by measuring the autofluorescence of the cells.

The mark [3] stands for this setting: RPE cells with 20 nM concanamycin, 24 hours of treatment.

On to `C[C@H](Cc1ccc2c(c1)OC(C(=O)[O-])(C(=O)[O-])O2)NC[C@H](O)c1cccc(Cl)c1.[Na+].[Na+]` [CL-316,243], for which the “concentration from which effective on re-acidification of the lysosomal pH” value with RPE cells [1] (cells treated with 15 μM tamoxifen, FIG. 1) was found to be 20 nM.

Consider `C/C=C/[C@H]1O[C@@](O)([C@@H](C)[C@H](O)[C@H](C)[C@H]2OC(=O)/C(OC)=C/C(C)=C/[C@@H](C)[C@@H](O)[C@@H](CC)[C@@H](O)[C@H](C)C/C(C)=C/C=C/[C@@H]2OC)C[C@@H](O)[C@@H]1C` [concanamycin], for which the “cathepsin D activity” value in the experiment on cathepsin D (setting [3]) was 0.013 unit/ml of enzyme/min/μg of proteins.

Regarding `Nc1nc(CC(=O)Nc2ccc(CCNC[C@H](O)c3ccccc3)cc2)cs1` [mirabegron, (R)-2-(2-aminothiazol-4-yl)-4′-[2-[(2-hydroxy-2-phenylethyl)amino]ethyl]acetic acid anilide], the “effect on lysosomal pH (in words)” value in the experiment on RPE cells [1] (1 pM, FIG. 1) is “lowers the lysosomal pH”. In addition, the “effect on lipofuscin accumulation / photoreceptor outer segment digestion (in words)” value with RPE cells [2] (RPE cells, two weeks of treatment) is on record as “significantly reduce the accumulation of lipofuscin; also recorded: reduces the accumulation of lipofuscin”. Besides, the “reduction of the accumulation of lipofuscin by RPE cells (autofluorescence)” value in the experiment on RPE cells [2] (agonist at 10 μM, two weeks of co-treatment with oxidised outer segments, versus DMSO control) was approximately 20%. Moreover, the “restoration of cathepsin D activity (in words)” value with cathepsin D (RPE cells treated with concanamycin) is “significantly restores the activity of cathepsin D”. Further, in the experiment on cathepsin D (setting [3]), the “cathepsin D activity” value is 0.040 unit/ml of enzyme/min/μg of proteins and the “multiplication of cathepsin D activity compared to negative control (concanamycin)” value is recorded as 3 fold.

As for `CC/C(=C(\c1ccccc1)c1ccc(OCCN(C)C)cc1)c1ccccc1` [tamoxifen], the “increase in the lysosomal pH” value in the experiment with RPE cells [1] (15 μM tamoxifen, in 20 minutes) is on record as approximately 1 pH unit.
